Key:
Type in all cases: cell-based
IL-6 (THP-1 cells) = assay: IL-6 inhibition in LPS-stimulated THP-1 cells (HTRF); settings: Homo sapiens; for EC50: IL6 by HTRF, THP-1 cells, 500 ng/mL LPS, 22 hours; for inhibition at 10 µM: THP-1, read-out: percent inhibition at 10 M
Method: THP-1 cells were cultured in basal media with 1% FBS for 24 hours before the start of the assay. […] THP-1 cells were plated at 5000 cells/well in the 384-well plates and incubated at 37° C. for 2 h. 500 ng/mL of LPS was added after 2 hours and cells were incubated for another 22 hours at 37° C. Plates were spun in a centrifuge for 1 minute at […] and a mixture of anti-IL6 XL665, and anti-IL6 Cryptate diluted in reconstitution buffer (Cisbio Inc.) was added to each well. Following incubation for 3 hrs at room temperature, Homogeneous Time-Resolved Fluorescence (HTRF) was measured using the Envision (Perkin Elmer) at 665 nm and […]. The ratio of fluorescence at 665 nm to 620 nm was used as a readout for IL6 quantification. All samples were processed in duplicate. Readings were normalized to DMSO treated cells and normalized activities were utilized for EC50 calculations using the dose-response log (inhibitor) vs. response-variable slope (four parameters) nonlinear regression feature available in GraphPad Prism 5.0 (or Dotmatics).

[1] = tested on: primary human fibroblasts derived from IPF patients (LL29 cells) treated with TGF-β1; assay: Inhibition of the fibrotic process (αSMA staining) in TGF-β1-treated fibroblasts; settings: Fibroblast, 96 h; for EC50: % αSMA-positive LL29 cells, TGF-β1 20 ng/mL, 4 days; for inhibition at 10 µM: read-out: percent inhibition at 10 μM
Method: Representative compounds were screened using primary human fibroblasts (derived from IPF patients) treated with TGF-β1 to determine their ability to inhibit the fibrotic process.
LL29 cells are plated at 1,500 cells/well in 80 μL/well F12 medium supplemented with 1% Fetal Bovine Serum. […] Wells treated with TGF-P1 and containing DMSO were used as controls. […] Following incubation for 4 days, SYTOX green nucleic acid stain (Life Technologies [Thermo Fisher Scientific]) was added to the wells at a final concentration of 1 μM and incubated at room temperature for 30 min.

SW480 colon cancer cells = assay: Cell viability assay (CellTiter-Blue); settings: Homo sapiens; for EC50: 96 h, SW480 cell viability, four days, CellTiter-Blue; for inhibition at 10 µM: SW480, 96 h, read-out: percent inhibition at 10 μM
Method: Representative compounds were screened using the following assay procedure to assess the effect on cell viability as described below.
Approximately 2×10^3 SW480 colon cancer cells were seeded into each well and allowed to incubate in the presence or absence of compound for four days at 37° C./5% CO2. Eight replicates of DMSO-treated cells served as controls and cells treated with compound were performed in duplicate.
After incubation, 20 μL of CellTiter-Blue (Promega) was added to each well allowed to incubate for approximately 3 hours. This reagent was a buffered solution which contains resazurin, metabolically active cells were able to reduce rezarurin (blue) into resorufin (pink) which was highly fluorescent. This measured fluorescence was used as a readout for cell viability.

[2] = tested on: Wnt activity (Sp5-Luc reporter, SW480 colon carcinoma cells); assay: Screening assay for Wnt activity (Sp5-Luc reporter gene assay in SW480 cells); settings: Homo sapiens; for EC50: Sp5-Luc reporter, SW480 cells, incubated overnight; for inhibition at 10 µM: SW480, read-out: percent inhibition at 10 μM
From the text: The screening assay for Wnt activity is described as follows. Reporter cell lines can be generated by stably transducing cancer cell lines (e.g., colon cancer) or primary cells (e.g., IEC-6 intestinal cells) with a lentiviral construct that includes a Wnt-responsive promoter driving expression of the firefly luciferase gene.
SW480 colon carcinoma cells were transduced with a lentiviral vector expressing luciferase with a human Sp5 promoter consisting of a sequence of eight TCF/LEF binding sites. SW480 cells stably expressing the Sp5-Luc reporter gene and a hygromycin resistance gene were selected by treatment with 150 μg/mL of hygromycin for 7 days. These stably transduced SW480 cells were expanded in cell culture and used for all further screening activities. […] For Sp5-Luc reporter gene assays, the cells were plated at 4,000 cells/well in 384-well plates with medium containing 1% fetal bovine serum and incubated overnight at 37° C. and 5% CO2. Following incubation, 20 μl of BrightGlo luminescence reagent (Promega) was added to each well of the 384-well assay plates. The plates were placed on an orbital shaker for 2 min and then luminescence was quantified using the Envision (Perkin Elmer) plate reader. Readings were normalized to DMSO only treated cells, and normalized activities were utilized for EC50 calculations using the dose-response log (inhibitor) vs. response-variable slope (four parameters) nonlinear regression feature available in GraphPad Prism 5.0 (or Dotmatics).

Row | Compound | EC50 (IL-6 (THP-1 cells)) [nM] | EC50 (SW480 colon cancer cells) [nM] | EC50 [2] [nM] | EC50 [1] [nM] | inhibition at 10 µM (IL-6 (THP-1 cells)) [%] | inhibition at 10 µM [2] [%] | inhibition at 10 µM [1] [%] | inhibition at 10 µM (SW480 colon cancer cells) [%]
1 | Fc1cccc(-c2nccc3[nH]c(-c4n[nH]c5ccc(-c6ccncc6)cc45)cc23)c1 [Compound 18, 3-(4-(3-Fluorophenyl)-1H-pyrrolo[3,2-c]pyridin-2-yl)-5-(pyridin-4-yl)-1H-indazole] | > 10000 | 1860 | > 10000 | 4350 | 8.4 | 58.3 |  | 
2 | Cc1ccncc1-c1ccc2[nH]nc(-c3cc4c(-c5ccc(F)cc5)nccc4[nH]3)c2c1 [Compound 33, 3-(4-(4-Fluorophenyl)-1H-pyrrolo[3,2-c]pyridin-2-yl)-5-(4-methylpyridin-3-yl)-1H-indazole] | > 10000 | 3850 | 3720 | 2000 | 36.8 |  |  | 
3 | CC(C)(C)C(=O)Nc1cncc(-c2ccc3[nH]nc(-c4cc5c(-c6ccc(F)cc6)nccc5[nH]4)c3c2)c1 [Compound 36, N-(5-(3-(4-(4-Fluorophenyl)-1H-pyrrolo[3,2-c]pyridin-2-yl)-1H-indazol-5-yl)pyridin-3-yl)pivalamide] | 207 | 659 | 742 | 745 |  |  |  | 
4 | CC(C)Nc1cncc(-c2ccc3[nH]nc(-c4cc5c(-c6ccc(F)cc6)nccc5[nH]4)c3c2)c1 [Compound 40, 5-(3-(4-(4-Fluorophenyl)-1H-pyrrolo[3,2-c]pyridin-2-yl)-1H-indazol-5-yl)-N-isopropylpyridin-3-amine] | 545 | 779 | 539 | 549 |  |  |  | 
5 | CC(C)(C)CC(=O)Nc1cncc(-c2ccc3[nH]nc(-c4cc5c(-c6ccc(F)cc6)nccc5[nH]4)c3c2)c1 [Compound 44, N-(5-(3-(4-(4-Fluorophenyl)-1H-pyrrolo[3,2-c]pyridin-2-yl)-1H-indazol-5-yl)pyridin-3-yl)-3,3-dimethylbutanamide] | > 10000 | > 10000 | > 10000 | > 10000 | 35 | 19.5 | 0 | 7.7
6 | Fc1ccccc1-c1nccc2[nH]c(-c3n[nH]c4ccc(-c5ccccn5)cc34)cc12 [Compound 84, 3-(4-(2-Fluorophenyl)-1H-pyrrolo[3,2-c]pyridin-2-yl)-5-(pyridin-2-yl)-1H-indazole] | 1960 | 1020 | 1220 | 659 |  |  |  | 
7 | CN1CCN(c2nccc3[nH]c(-c4n[nH]c5ccc(-c6ccccn6)cc45)cc23)CC1 [Compound 252, 3-(4-(4-Methylpiperazin-1-yl)-1H-pyrrolo[3,2-c]pyridin-2-yl)-5-(pyridin-2-yl)-1H-indazole] | 2750 | 4690 | > 10000 | 1460 |  | 18.8 |  | 

Second part, led by results:

Row | EC50 (IL-6 (THP-1 cells)) [nM] | EC50 (SW480 colon cancer cells) [nM] | EC50 [2] [nM] | Compound | EC50 [1] [nM] | inhibition at 10 µM (IL-6 (THP-1 cells)) [%] | inhibition at 10 µM [2] [%] | inhibition at 10 µM [1] [%] | inhibition at 10 µM (SW480 colon cancer cells) [%]
8 | 660 | 1020 | 875 | O=C(Cc1ccccc1)Nc1cncc(-c2ccc3[nH]nc(-c4cc5c(-c6cccc(F)c6)nccc5[nH]4)c3c2)c1 [Compound 10, N-(5-(3-(4-(3-Fluorophenyl)-1H-pyrrolo[3,2-c]pyridin-2-yl)-1H-indazol-5-yl)pyridin-3-yl)-2-phenylacetamide] | 630 |  |  |  | 
9 | 108 | 1140 | 1400 | O=C(Nc1cncc(-c2ccc3[nH]nc(-c4cc5c(-c6cccc(F)c6)nccc5[nH]4)c3c2)c1)C1CCCCC1 [Compound 23, N-(5-(3-(4-(3-Fluorophenyl)-1H-pyrrolo[3,2-c]pyridin-2-yl)-1H-indazol-5-yl)pyridin-3-yl)cyclohexanecarboxamide] | 1460 |  |  |  | 
10 | 3090 | 576 | 1080 | Fc1cccc(-c2nccc3[nH]c(-c4n[nH]c5ccc(-c6ccccn6)cc45)cc23)c1 [Compound 28, 3-(4-(3-Fluorophenyl)-1H-pyrrolo[3,2-c]pyridin-2-yl)-5-(pyridin-2-yl)-1H-indazole] | 421 |  |  |  | 
11 | 1300 | 439 | 442 | CC(C)CC(=O)Nc1cncc(-c2ccc3[nH]nc(-c4cc5c(-c6ccc(F)cc6)nccc5[nH]4)c3c2)c1 [Compound 30, N-(5-(3-(4-(4-Fluorophenyl)-1H-pyrrolo[3,2-c]pyridin-2-yl)-1H-indazol-5-yl)pyridin-3-yl)-3-methylbutanamide] | 329 |  |  |  | 
12 | 3460 | 540 | 1610 | O=C(Nc1cncc(-c2ccc3[nH]nc(-c4cc5c(-c6ccc(F)cc6)nccc5[nH]4)c3c2)c1)c1ccccc1 [Compound 39, N-(5-(3-(4-(4-Fluorophenyl)-1H-pyrrolo[3,2-c]pyridin-2-yl)-1H-indazol-5-yl)pyridin-3-yl)benzamide] | 501 |  |  |  | 
13 | 489 | > 10000 | 445 | CC(C)(C)CC(=O)Nc1cncc(-c2ccc3[nH]nc(-c4cc5c(-c6ccccc6F)nccc5[nH]4)c3c2)c1 [Compound 72, N-(5-(3-(4-(2-Fluorophenyl)-1H-pyrrolo[3,2-c]pyridin-2-yl)-1H-indazol-5-yl)pyridin-3-yl)-3,3-dimethylbutanamide] | > 10000 |  |  | 0 | 9.6
14 | 331 | 8080 | > 10000 | CN(C)c1cncc(-c2ccc3[nH]nc(-c4cc5c(-c6cccnc6)nccc5[nH]4)c3c2)c1 [Compound 91, N,N-Dimethyl-5-(3-(4-(pyridin-3-yl)-1H-pyrrolo[3,2-c]pyridin-2-yl)-1H-indazol-5-yl)pyridin-3-amine] | > 10000 |  | 35.7 | 46.9 | 
15 | > 10000 | 1020 | 2100 | c1cc(-c2ccc3[nH]nc(-c4cc5c(N6CCCCC6)nccc5[nH]4)c3c2)ccn1 [Compound 186, 3-(4-(Piperidin-1-yl)-1H-pyrrolo[3,2-c]pyridin-2-yl)-5-(pyridin-4-yl)-1H-indazole] | 832 | 53.9 |  |  | 
16 | 1420 | 2870 | 1900 | CC(C)CC(=O)Nc1cncc(-c2ccc3[nH]nc(-c4cc5c(N6CCN(C)CC6)nccc5[nH]4)c3c2)c1 [Compound 226, 3-Methyl-N-(5-(3-(4-(4-methylpiperazin-1-yl)-1H-pyrrolo[3,2-c]pyridin-2-yl)-1H-indazol-5-yl)pyridin-3-yl)butanamide] | 2960 |  |  |  | 
17 | 9510 | > 10000 | > 10000 | CN1CCN(c2nccc3[nH]c(-c4n[nH]c5ccc(-c6cncc(NC(=O)C7CCCC7)c6)cc45)cc23)CC1 [Compound 246, N-(5-(3-(4-(4-Methylpiperazin-1-yl)-1H-pyrrolo[3,2-c]pyridin-2-yl)-1H-indazol-5-yl)pyridin-3-yl)cyclopentanecarboxamide] | > 10000 |  | 17.1 | 0 | 34.3
18 | 8260 | > 10000 | > 10000 | CN1CCN(c2nccc3[nH]c(-c4n[nH]c5ccc(-c6cncnc6)cc45)cc23)CC1 [Compound 251, 3-(4-(4-Methylpiperazin-1-yl)-1H-pyrrolo[3,2-c]pyridin-2-yl)-5-(pyrimidin-5-yl)-1H-indazole] | 9700 |  | 20.2 |  | 20

— patent publication US10463651B2, “3-(1H-pyrrolo[3,2-C]pyridin-2-YL)-1H-indazoles and therapeutic uses thereof” (Samumed, LLC, priority 2015, dated 2019)
